How the values were obtained:
[1] = target: Acetylcholinesterase (Electrophorus electricus, UniProt O42275); assay: Inhibition of Electrophorus electricus AChE using acetylthiocholine iodide as substrate measured during 6 mins by Ellman's method
[2] = target: Acetylcholinesterase (Electrophorus electricus) (UniProt O42275); assay: Inhibition of Electrophorus electricus AChE at 50 uM using acetylthiocholine iodide as substrate measured after 10 mins by Ellman's method relative to control
Sequence of Acetylcholinesterase (Electrophorus electricus) (O42275 24-633 limits assumed): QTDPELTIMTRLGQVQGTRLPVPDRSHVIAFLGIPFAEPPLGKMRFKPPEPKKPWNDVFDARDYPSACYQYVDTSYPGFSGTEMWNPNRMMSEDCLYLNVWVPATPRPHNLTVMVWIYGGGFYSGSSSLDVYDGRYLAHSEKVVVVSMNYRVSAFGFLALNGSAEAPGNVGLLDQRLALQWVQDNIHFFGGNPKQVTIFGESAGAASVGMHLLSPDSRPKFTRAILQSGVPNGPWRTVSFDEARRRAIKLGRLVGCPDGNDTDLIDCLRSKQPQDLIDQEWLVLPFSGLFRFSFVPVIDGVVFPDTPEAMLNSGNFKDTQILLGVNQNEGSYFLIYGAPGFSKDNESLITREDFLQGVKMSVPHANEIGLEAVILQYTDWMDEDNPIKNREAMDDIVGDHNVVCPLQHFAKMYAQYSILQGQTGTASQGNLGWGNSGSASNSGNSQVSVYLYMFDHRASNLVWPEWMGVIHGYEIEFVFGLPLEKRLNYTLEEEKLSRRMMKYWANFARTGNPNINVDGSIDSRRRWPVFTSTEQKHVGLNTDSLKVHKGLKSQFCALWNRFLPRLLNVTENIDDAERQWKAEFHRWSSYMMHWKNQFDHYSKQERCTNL

Sequence of Acetylcholinesterase (O42275 whole entry): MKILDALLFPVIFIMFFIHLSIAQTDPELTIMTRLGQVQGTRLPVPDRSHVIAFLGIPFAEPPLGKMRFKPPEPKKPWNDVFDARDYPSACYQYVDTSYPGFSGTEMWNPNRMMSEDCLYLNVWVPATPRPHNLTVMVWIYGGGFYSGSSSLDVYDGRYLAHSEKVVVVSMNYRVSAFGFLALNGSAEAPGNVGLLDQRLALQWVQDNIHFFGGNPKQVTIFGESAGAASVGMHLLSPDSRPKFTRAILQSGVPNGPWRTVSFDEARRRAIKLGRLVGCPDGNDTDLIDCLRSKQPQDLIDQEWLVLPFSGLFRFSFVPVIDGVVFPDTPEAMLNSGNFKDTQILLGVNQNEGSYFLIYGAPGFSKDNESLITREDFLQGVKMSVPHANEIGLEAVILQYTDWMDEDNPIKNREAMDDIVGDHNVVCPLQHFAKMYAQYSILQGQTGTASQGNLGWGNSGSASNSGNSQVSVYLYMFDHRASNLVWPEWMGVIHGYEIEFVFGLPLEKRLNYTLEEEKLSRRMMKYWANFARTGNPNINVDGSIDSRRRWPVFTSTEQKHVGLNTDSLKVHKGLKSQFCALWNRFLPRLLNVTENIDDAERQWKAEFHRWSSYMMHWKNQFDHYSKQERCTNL

Compound | IC50 [1] [µM] | inhibition [2] [%]
C=C[C@H]1CO[C@@H]2C[C@H]1Cc1c3[nH]c4ccccc4c3cc[n+]12 | 10 | –
CNCCc1c[nH]c2ccccc12 | – | 49.8
C=C[C@H]1CO[C@@H]2C[C@H]1C(=O)c1c3[nH]c4ccccc4c3cc[n+]12 | 3.4 | –
CN1CCC2(O)c3ccccc3NC12 (centres undefined) | – | 53.7
